Assay results reported in US20230356105A1, “TETRAAZADODECANE BASED CHELATING AGENTS FOR SEPARATION OF RARE EARTH ELEMENTS AND METHOD THEREFOR” (Ustav Organicke Chemie a Biochemie AV CR V.V.I., priority 2020, published 2023).
Where “and” joins values, the source holds several entries; their conditions need not be identical. Identical values can stand only once. Like-named read-outs stand apart in the source and are kept apart here.

What was measured:
Type in all cases: physicochemical
[1] = Separation of Ho/Er mixture by repeated precipitation using L1 (Example 11); conditions: for Precipitate concentration [mM] Ho: dissolved to 200 μL
Experimental: Stock solutions were pipetted into round-bottom 2 mL Eppendorf tubes as follows: • 1. 10 μL 100 mM aqueous solution of HoCl3 • 2. 10 μL 100 mM aqueous solution of ErCl3 • 3. 20 μL 100 mM aqueous solution of compound L1. • 4. 60 μL 2 M MOPS buffer pH=7. • 5. 140 μL water.
Nine identical reaction mixtures were prepared and split into three groups: A, B, C. Each tube was equipped with one PTFE-coated magnetic stir bar and sealed, and the mixture was stirred on a magnetic stirrer for 24 hours at room temperature. The tubes were then centrifuged and the supernatants were carefully pipetted out and transferred to a new set of tubes. Precipitates from group A were dissolved by addition of 200 μL 0.1 M HCl. The concentrations of Ho and Er in the supernatants and in the re-dissolved precipitates from group A were determined by ICP-OES. Precipitates from groups B and C were further processed as follows: the precipitates were dissolved by addition of 100 μL 0.1 M HCl, and the pH of the solutions were then raised from 1 to 7 by addition of an equimolar amount of 0.2 M NaOH. The total volume was adjusted to 200 μL by addition of water. The prepared mixtures were subjected to a second round of precipitation and were stirred on a magnetic stirrer for 24 hours at room temperature. The tubes were again centrifuged and the supernatants were carefully pipetted out and transferred to a new set of tubes. Samples from group B were treated identically to the samples from group A previously, and the Ho and Er content in the supernatants and precipitates were determined by ICP-OES. Precipitates from group C were subjected to a third cycle of precipitation followed by Ho and Er content determination analogously to the procedures described above. The resulting absolute concentrations of both metals in the supernatants and precipitates, as well as calculated values of the separation factor Er/Ho according to the formula (concentration of Er in supernatant/concentration of Er in precipitate)/(concentration of Ho in supernatant/concentration of Ho in precipitate), are summarized in Table 5.

[2] = Separation of Eu/Yb mixture by precipitation using L5 (Example 15); conditions: for Precipitate concentration [mM] Eu / Precipitate concentration [mM] Yb: dissolved to 150 μL
Experimental: Stock solutions were pipetted into round-bottom 2 mL Eppendorf tubes as follows: • 1. 15 μL 100 mM aqueous solution of EuCl3 • 2. 10 μL 100 mM aqueous solution of YbCl3 • 3. 30 μL 100 mM aqueous solution of compound L5. • 4. 90 μL 0.5 M MOPS buffer pH=7.
Three identical reaction mixtures were prepared. Each tube was equipped with one PTFE-coated magnetic stir bar and sealed, and the mixture was stirred on a magnetic stirrer for 24 hours at room temperature. The tubes were then centrifuged and the supernatants were carefully pipetted out and transferred to a new set of tubes. To the precipitate was added 100 μL 1 M HCl (reaching pH=0) and the mixture was stirred until full dissolution (overnight at room temperature, pH=0). The overall volume of the solution was adjusted to 150 μL volume by addition of water. The supernatants were treated with 1 M HCl for a total volume of 150 μL and pH=0.5. Concentrations of Eu and Yb in the supernatants and in the re-dissolved precipitates were determined by ICP-OES. The resulting absolute concentrations of both metals in the supernatants and precipitates, as well as calculated values of the separation factor Yb/Eu according to formula from Example 11), are summarized in Table 9. […] The average separation factor value was 152.

[3] = Separation of Pr from L5 by C18 column (Example 28)
Experimental: Stock solutions were pipetted into a 20 mL glass vial to prepare a reaction mixture as follows: • 1. 1.00 mL 100 mM aqueous solution of PrCl3 • 2. 0.60 mL 218 mM aqueous solution of L5
NaOH (2 M aqueous stock solution) was added by micropipette to titrate the reaction pH to 6. This reaction was stirred by the use of a PTFE-coated stir bar on a magnetic stirrer at room temperature for 30 minutes. The resulting suspension was transferred into two 2 mL plastic Eppendorf centrifuge tubes and centrifuged. The supernatant was set aside and analysed by HPLC, and the precipitate was dissolved by addition of 0.15 mL 1 M HCl to each Eppendorf tube. These dissolved solutions were combined and titrated to pH 2 by addition of 2 M NaOH.
The L5 and Pr present in the acidic solution were separated by reverse-phase chromatography, using 1.01 g fully-endcapped C18 silica gel in a plastic SPE cartridge (2 cm diameter). After conditioning the reversed phase with MeCN and MeCN/H20 solutions, 1 mL of H2O was run through the column before loading the L5-Pr solution onto the column. MeCN/H20 solutions were used to elute the components from the column: 2 mL 0% MeCN, 4 mL 10% MeCN, 4 mL 25% MeCN, and 4 mL 50% MeCN. The eluted solutions were collected as seven 2 mL fractions. All fractions were analysed by HPLC-MS to determine L5 content. The first two fractions were also analysed by ICP-OES to determine Pr content.
The distribution of L5 and Pr in the fractions is shown in Table 21, where the quantity of each component present in each fraction is provided as a fraction of the total quantity of the component found in the sum of the fractions, as well as the measured content of Pr (in mM) and L5 (as the integrations of the chromatographic peak areas at 280 nm) found in each fraction.

[4] = group A, 1st precipitation, mean

O=C(O)CN1CCN(CC(=O)O)CCN(Cc2ccccc2)CCN(CC(=O)O)CC1 [L1, 2,2′,2″-(10-benzyl-1,4,7,10-tetraazacyclododecane-1,4,7-triyl)triacetic Acid]
average of the separation factor values Er/Ho ([1]; all Er/Ho mixtures): 2.73 | Separation factor Er/Ho ([1]; group A, 1st precipitation): 2.30 and 2.59 and 2.55 | Supernatant concentration [mM] Ho ([1]; group A, 1st precipitation): 0.44 mM and 0.40 mM and 0.46 mM | Precipitate concentration [mM] Ho ([1]; group A, 1st precipitation): 4.72 mM and 4.31 mM and 4.29 mM | Precipitate concentration [mM] Ho [1, 4]: 4.44 mM | Supernatant concentration [mM] Ho [1, 4]: 0.43 mM | Separation factor Er/Ho ([1]; group B, 2nd precipitation): 3.10 and 2.68 and 3.02 | Supernatant concentration [mM] Ho ([1]; group B, 2nd precipitation): 0.58 mM and 0.51 mM and 0.44 mM | Precipitate concentration [mM] Ho ([1]; group B, 2nd precipitation): 4.07 mM and 4.24 mM and 4.20 mM | Precipitate concentration [mM] Ho ([1]; group B, 2nd precipitation, mean): 4.17 mM | Separation factor Er/Ho ([1]; group C, 3rd precipitation): 2.97 and 2.30 and 3.06 | Precipitate concentration [mM] Ho ([1]; group C, 3rd precipitation): 3.23 mM and 2.65 mM | Precipitate concentration [mM] Ho ([1]; group C, 3rd precipitation, mean): 3.04 mM

O=C(O)CN1CCN(CC(=O)O)CCN(Cc2cccc3ccccc23)CCN(CC(=O)O)CC1 [L5, 2,2′,2″-(10-(naphthalene-1-ylmethyl)-1,4,7,10-tetraazacyklododekane-1,4,7-triyl)triacetic acid]
Supernatant concentration [mM] Eu [2]: 0.16 mM and 0.22 mM | Supernatant concentration [mM] Yb [2]: 3.69 mM and 3.85 mM and 3.97 mM | Precipitate concentration [mM] Eu [2]: 4.66 mM and 4.57 mM and 4.50 mM | Precipitate concentration [mM] Yb [2]: 0.63 mM and 0.62 mM and 0.58 mM | Precipitate concentration [mM] Eu ([2]; mean): 4.58 mM | Precipitate concentration [mM] Yb ([2]; mean): 0.61 mM | Supernatant concentration [mM] Eu ([2]; mean): 0.19 mM | Supernatant concentration [mM] Yb ([2]; mean): 3.84 mM | % distribution in fractions L5 ([3]; fraction 1 (0% MeCN)): 0.0% | % distribution in fractions Pr ([3]; fraction 1 (0% MeCN)): 87% | measured content of fraction L5 peak area (280 nm) ([3]; fraction 1 (0% MeCN)): 0 AU | measured content of fraction Pr ([3]; fraction 1 (0% MeCN)): 18.95 mM | % distribution in fractions L5 ([3]; fraction 2 (10% MeCN)): 0.1% | % distribution in fractions Pr ([3]; fraction 2 (10% MeCN)): 13% | measured content of fraction L5 peak area (280 nm) ([3]; fraction 2 (10% MeCN)): 3 AU | measured content of fraction Pr ([3]; fraction 2 (10% MeCN)): 2.82 mM | % distribution in fractions L5 ([3]; fraction 3 (10% MeCN)): 56.8% | measured content of fraction L5 peak area (280 nm) ([3]; fraction 3 (10% MeCN)): 2258 AU | % distribution in fractions L5 ([3]; fraction 4 (25% MeCN)): 34.8% | measured content of fraction L5 peak area (280 nm) ([3]; fraction 4 (25% MeCN)): 1382 AU | % distribution in fractions L5 ([3]; fraction 5 (25% MeCN)): 8.1% | measured content of fraction L5 peak area (280 nm) ([3]; fraction 5 (25% MeCN)): 324 AU | % distribution in fractions L5 ([3]; fraction 6 (50% MeCN)): 0.1% | measured content of fraction L5 peak area (280 nm) ([3]; fraction 6 (50% MeCN)): 5 AU | % distribution in fractions L5 ([3]; fraction 7 (50% MeCN)): 0.1% | measured content of fraction L5 peak area (280 nm) ([3]; fraction 7 (50% MeCN)): 3 AU
